Laboratory results: paper PMC5832771, “Recognition motif and mechanism of ripening inhibitory peptides in plant hormone receptor ETR1” (Scientific Reports, 2018)
One block for each molecule: values may come before it. Residues, ends and D or L forms follow the SMILES beside them. No end group written: not given here.

How the values were obtained:
AtETR1^1–307 (TM–GAF) [1] = target: T1, AtETR1^1–307 (TM–GAF) (Arabidopsis thaliana, UniProt P49333); test: biochemical; type: binding
T1 construct: made in house; host or cells: E. coli C43 (DE3)

AtETR1^1–307 (TM–GAF) [2] = target: T2, AtETR1^1–307 (TM–GAF) (Arabidopsis thaliana, UniProt P49333 1-307, Alexa Fluor 488 C5 maleimide (thiol-reactive) label); test: MST; Alexa Fluor 488-labelled AtETR1 construct at 25 nM, peptide titrated; 50 mM Tris/HCl pH 8.0, 300 mM NaCl, 0.15 g/L fos-choline-16; 23-25 °C; temperature jump evaluated, one-binding-site model; details: both partners purified
T2 construct: pTEV-16b: N-terminal His10, linker SSGH, TEV site ENLYFQG; no cleavage described; source: E. coli C43 (DE3), purified (membranes solubilised in fos-choline-16, Ni-NTA HisTrap)
T2 sequence (looked up): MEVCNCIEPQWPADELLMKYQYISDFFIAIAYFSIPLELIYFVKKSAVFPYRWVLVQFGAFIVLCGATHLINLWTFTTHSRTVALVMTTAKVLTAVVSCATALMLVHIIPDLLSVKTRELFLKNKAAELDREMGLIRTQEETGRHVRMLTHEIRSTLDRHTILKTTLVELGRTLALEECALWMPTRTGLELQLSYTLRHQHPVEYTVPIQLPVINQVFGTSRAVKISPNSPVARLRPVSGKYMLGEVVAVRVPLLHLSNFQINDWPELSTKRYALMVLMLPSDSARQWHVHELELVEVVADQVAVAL

Molecule: CC(C)C[C@H](NC(=O)[C@H](CCCNC(=N)N)NC(=O)[C@H](CCCNC(=N)N)NC(=O)[C@H](CCCCN)NC(=O)[C@H](Cc1ccc(O)cc1)NC(=O)[C@H](CCCNC(=N)N)NC(=O)[C@H](CCCCN)NC(=O)[C@H](CC(C)C)NC(=O)[C@@H](NC(=O)[C@H](CO)NC(=O)[C@H](C)NC(=O)[C@H](CC(C)C)NC(=O)[C@H](CC(N)=O)NC(=O)[C@H](CCC(=O)O)NC(=O)[C@H](CCCCN)NC(=O)CNC(=O)[C@H](CCCCN)NC(=O)[C@@H]1CCCN1C(=O)[C@H](Cc1ccccc1)NC(=O)[C@H](C)N)C(C)C)C(N)=O [NIP-1] (H-AFPKGKENLASVLKRYKRRL-NH2)
Kd (AtETR1^1–307 (TM–GAF) [1]): 68 ± 15 nM

Molecule: CC(C)C[C@H](NC(=O)[C@H](CCCNC(=N)N)NC(=O)[C@H](CCCNC(=N)N)NC(=O)[C@H](CCCCN)NC(=O)[C@H](Cc1ccc(O)cc1)NC(=O)[C@H](CCCNC(=N)N)NC(=O)[C@H](CCCCN)NC(=O)[C@H](CC(C)C)NC(=O)[C@@H](NC(=O)[C@H](CO)NC(=O)[C@H](C)NC(=O)[C@H](CC(C)C)NC(=O)[C@H](CC(N)=O)NC(=O)[C@H](CCC(=O)O)NC(=O)[C@H](CCCCN)NC(=O)CNC(=O)[C@H](CCCCN)NC(=O)[C@@H]1CCCN1C(=O)[C@H](Cc1ccccc1)NC(=O)[C@H](C)NC(=O)[C@@H](NC(=O)[C@H](CC(=O)O)NC(=O)CNC(=O)[C@H](C)NC(=O)[C@H](C)NC(=O)[C@@H](NC(=O)CNC(=O)[C@@H](NC(=O)[C@H](CCCNC(=N)N)NC(=O)CN)[C@@H](C)O)[C@@H](C)O)C(C)C)C(C)C)C(N)=O [N30P] (H-GRTGTAAGDVAFPKGKENLASVLKRYKRRL-NH2)
Kd (AtETR1^1–307 (TM–GAF) [1]): 57 ± 19 nM

Molecule: KDVEMAISSRKGRTGTAAGDVAFPKGKENLASVLKRYKRRL-NH2 [N41P]
Kd (AtETR1^1–307 (TM–GAF) [1]): 30 ± 10 nM

B3: extended peptide N30P (peptide)
peptide: GRTGTAAGDVAFPKGKENLASVLKRYKRRL-NH2
notes: source: synthetic peptide, bought: GenScript (TFA salt, >98% HPLC purity)
binding result (AtETR1^1–307 (TM–GAF) [2]): binds

Results, then the molecule that gave them:

binding result (AtETR1^1–307 (TM–GAF) [2]): binds
B1: extended peptide NIP-1 (peptide)
peptide: AFPKGKENLASVLKRYKRRL-NH2
notes: as for B3

binding result (AtETR1^1–307 (TM–GAF) [2]): binds
B2: extended peptide N41P (peptide)
peptide: KDVEMAISSRKGRTGTAAGDVAFPKGKENLASVLKRYKRRL-NH2
notes: as for B3
